Test results reported in patent US5747462A, “Pharmaceutically active compounds and their use” (priority 1995, dated 1998).

Assay: quantitative evaluation of intradermoplantar edema induced by lambda-carrageenan in guinea pigs (plethysmometer)
Settings: for anti-inflammatory effect with respect to the carrageenan standard (S2): p<0.000, one way variance analysis and Tukey's multiple comparisons, at the experimental doses used
Procedure: This inoculation initiates an inflammatory process defined as the standard inflammatory constant of all the preclinical trials.
The comparative evaluation is performed by measuring with a plethysmometer the change in volume in milliliters of mercury and expressing the results in absolute volume (ml) and relative percentage (°/l or %) values versus the variable of time in hours (h).
The inflammatory response is induced by inoculating carrageenan into the animal's plantar pad, and the change in volume is measured with a plethysmometer in milliliters of mercury.
The technique employed is adapted to a biological model of guinea pigs, and evaluates the intensity of the edema as the increase or decrease in the proportion of relative inflamed volume. The equation which describes this variable is: postinoculation volume minus preinoculation control volume divided by preinoculation control volume.
The method of measurement is composed of three basic steps:
Measurement of the clinical parameter inflammation volume obtained on inoculating an inflammatory noxa. This procedure constitutes the inflammatory standard (inflammatory control).
Measurement of the change in the clinical parameter inflammation volume by applying to the inflammatory standard a drug recognized as anti-inflammatory reference substance (anti-inflammatory control).
Measurement of the change in the clinical parameter inflammation volume by applying to the inflammatory standard an anti-inflammatory composition and/or subcompositions (invention).
Standard (S2): 0.1 ml of the pharmaceutically acceptable injectable formulation containing 1% of lambda-carrageenan, prepared according to standard processes in sterile water for injections and administered via the intradermoplantar route. Single dose of carrageenan between 3.6 and 3.9 mg/kg animal body weight.
Reference substance (P1): 2.0 ml of the pharmaceutically acceptable injectable formulation containing 6.25% of acetylsalicylic acid (ASA), prepared according to standard processes in sterile water for injections and administered intraperitoneally. Single dose of ASA, between 418.1 and 490.2 mg/kg animal body weight.

SMILES | % Inflammation (0 h, ASA 418.1-490.2 mg/kg i.p. single dose) [%] | % Inflammation (1 h, ASA 418.1-490.2 mg/kg i.p. single dose) [%] | % Inflammation (2 h, ASA 418.1-490.2 mg/kg i.p. single dose) [%] | % Inflammation (3 h, ASA 418.1-490.2 mg/kg i.p. single dose) [%] | % Inflammation (4 h, ASA 418.1-490.2 mg/kg i.p. single dose) [%] | % Inflammation (5 h, ASA 418.1-490.2 mg/kg i.p. single dose) [%] | % Inflammation (6 h, ASA 418.1-490.2 mg/kg i.p. single dose) [%] | % Inflammation (7 h, ASA 418.1-490.2 mg/kg i.p. single dose) [%] | anti-inflammatory effect with respect to the carrageenan standard (S2) | % Inflammation (0 h, diclofenac sodium 94.8-105.8 mg/kg i.p. single dose) [%] | % Inflammation (1 h, diclofenac sodium 94.8-105.8 mg/kg i.p. single dose) [%] | % Inflammation (2 h, diclofenac sodium 94.8-105.8 mg/kg i.p. single dose) [%] | % Inflammation (5 h, diclofenac sodium 94.8-105.8 mg/kg i.p. single dose) [%] | % Inflammation (6 h, diclofenac sodium 94.8-105.8 mg/kg i.p. single dose) [%]
CC(=O)Oc1ccccc1C(=O)O [ASA (P1), acetylsalicylic acid] | 00.000 | 05.620 | 13.700 | 10.450 | 12.020 | 12.100 | 10.450 | 09.810 | significant anti-inflammatory effect |  |  |  |  | 
O=C(O)Cc1ccccc1Nc1c(Cl)cccc1Cl [DICLO (P2), diclofenac sodium] |  |  |  |  |  |  |  |  | significant anti-inflammatory effect | 00.000 | 12.500 | 12.600 | 11.400 | 12.300
